This passage reports viability results from publication PMC12040169 (PLOS Biology, 2025).

The data set in a line: in vitro. As to conditions: human, hela cells, % viability.

On to `Clc1cccc(C2N(Cc3ccccc3)CCN2Cc2ccccc2)c1` [CBK261222], for which the viability (as a rule, a read-out of living cells in per cent, often relative to untreated cells) at 28.5 h, 10 µM was found to be 93.1%. In the case of `COc1cccc(/C=N/c2cc(S(=O)(=O)c3ccc(O)c(/N=C/c4cccc(OC)c4O)c3)ccc2O)c1O` [CBK261225], the viability at 28.5 h, 10 µM amounted to 92.4%.

Take `O=[N+]([O-])c1ccc(/C=N/c2ccc(Cc3ccc(/N=C/c4ccc([N+](=O)[O-])s4)cc3)cc2)s1` [CBK261228]: the viability at 28.5 h, 10 µM is 98.3%. `Oc1cccc(/C=N/c2ccc(Cc3ccc(/N=C/c4cccc(O)c4)cc3)cc2)c1` [CBK261230]: the viability at 28.5 h, 10 µM turned out to be 103%. Turning to `COc1ccc(Br)cc1/C=N/Nc1nc(NCc2ccccc2)nc(N2CCOCC2)n1` [CBK261232], the viability at 28.5 h, 10 µM was determined as 92.9%.

`Oc1ccc2ccccc2c1/C=N/Nc1nc(NCc2ccccc2)nc(N2CCOCC2)n1` [CBK261233]: the viability at 28.5 h, 10 µM amounted to 93.8%. Still for that read-out and setting: the result for `O=C(Oc1ccc(/C=N/c2ccc(-c3nc4ccccc4s3)c(O)c2)cc1)c1ccc(Cl)cc1` [CBK261234] reads 100%; that for `O=[N+]([O-])c1cc(/C=N/Nc2nc(N3CCOCC3)nc(N3CCOCC3)n2)c(O)c([N+](=O)[O-])c1` [CBK261237], 105%; that for `COc1cc(/C=N/c2ccc3oc(-c4ccc(C(C)(C)C)cc4)nc3c2)ccc1OC(=O)c1ccc(Cl)cc1Cl` [CBK261238], 104%.

`COc1cc(/C=N/c2ccc3oc(-c4cccc(I)c4)nc3c2)ccc1OC(=O)c1ccc(Cl)cc1Cl` [CBK261239]: the viability at 28.5 h, 10 µM stood at 95.3%.

In the case of `O=C(Oc1ccc(/C=N/c2ccc(O)c(-c3nc4ccccc4s3)c2)cc1)c1ccccc1Cl` [CBK261241], the viability at 28.5 h, 10 µM was determined as 89.9%. For `Oc1ccc(/N=C/C=C/c2ccc(Cl)cc2Cl)cc1-c1nc2ccccc2s1` [CBK261242], the viability at 28.5 h, 10 µM is 107%. On the same count and under the same terms, the result for `COc1cc(/C=N/c2ccc(O)c(-c3nc4ccccc4s3)c2)ccc1OC(=O)c1ccc(Cl)cc1Cl` [CBK261243] reads 101%; that for `O=[N+]([O-])c1cccc(/C=C/C=N/c2ccc3c(c2)S(=O)(=O)c2cc(/N=C/C=C/c4cccc([N+](=O)[O-])c4)ccc2-3)c1` [CBK261244], 97.6%.

For the compound `CC(O)(CC(=O)O)C12CC3CC(CC(C3)C1)C2` (stereo not shown) [CBK261245], the viability at 28.5 h, 10 µM was determined as 114%.

On to `COc1ccc(/C=C/C(=O)O)cc1S(=O)(=O)Nc1ccc(C(=O)O)cc1` [CBK261246], for which the viability at 28.5 h, 10 µM was 108%. As for `O=C(NC(C(=O)N/N=C/c1cccs1)c1n[nH]c(=O)c2ccccc12)c1ccccc1` (stereo not shown) [CBK261250], the viability at 28.5 h, 10 µM turned out to be 98%. Consider `C/C(=N\NC(=O)c1ccccc1O)c1ccc(NC(=O)c2ccc(C)cc2)cc1` [CBK261251], for which the viability at 28.5 h, 10 µM came to 84.7%. For `O=S(=O)(c1ccc(-c2ccc(S(=O)(=O)N3CCCCC3)cc2)cc1)N1CCCCC1` [CBK261257], the viability at 28.5 h, 10 µM worked out at 92.2%. Still for that read-out and setting: the result for `O=C(Nc1ccccc1C(=O)O)c1cccc(S(=O)(=O)NCc2ccccc2)c1` [CBK261258] reads 98.1%; that for `O=S(=O)(c1cccc(S(=O)(=O)N2CCOCC2)c1)c1ccc(Cl)c(S(=O)(=O)N2CCOCC2)c1` [CBK261260], 104%. On the same count and under the same terms, the result for `O=C(O)c1cccc(NC(=O)c2cccc(S(=O)(=O)Nc3ccc(Cl)cc3)c2)c1` [CBK261261] reads 92.6%; that for `CC1=C(C)C(=NNC(N)=S)C(C)=C(C)C1=NNC(N)=S` [CBK261262], 91.9%. For the compound `Cc1ccc(-n2nc(-c3ccc(NC(=O)c4ccccc4)cc3)cc2NC(=O)c2ccccc2)cc1` [CBK261265], the viability at 28.5 h, 10 µM was 92.3%. Turning to `O=C(O)c1ccc(C(=O)O)c2c(-c3ccc(C(=O)O)c4c(C(=O)O)ccc(C(=O)O)c34)ccc(C(=O)O)c12` [CBK261267], the viability at 28.5 h, 10 µM came out at 98.4%. For the compound `CCCCc1ccc(C(=O)CSc2nc(N)c(C#N)c(-c3ccc(O)cc3)c2C#N)cc1` [CBK261268], the viability at 28.5 h, 10 µM was determined as 93.4%. In the case of `N#Cc1c(N)nc(SCC(=O)c2cc3ccccc3oc2=O)c(C#N)c1-c1ccc(O)cc1` [CBK261269], the viability at 28.5 h, 10 µM worked out at 103%.

`CC(C)(C)c1cc(CCC(c2cc(C(C)(C)C)c(O)c(C(C)(C)C)c2)c2cc(C(C)(C)C)c(O)c(C(C)(C)C)c2)cc(C(C)(C)C)c1O` [CBK261271]: the viability at 28.5 h, 10 µM is 92.9%. On to `CC(=O)Nc1ccc(-c2cc(-c3ccc(NC(C)=O)cc3)nc(-c3ccc([N+](=O)[O-])cc3)n2)cc1` [CBK261273], for which the viability at 28.5 h, 10 µM came out at 91.5%. `O=C(O)CCC(=O)c1c[nH]c2ccccc12` [CBK261275]: the viability at 28.5 h, 10 µM was determined as 110%.

Consider `O=C(N/C(=C/c1ccccc1)C(=O)N1CCCCC1)c1ccccc1` [CBK261280], for which the viability at 28.5 h, 10 µM is 94.7%.

Turning to `c1ccc(CN2CCN(Cc3ccccc3)C2c2ccc[nH]2)cc1` [CBK261283], the viability at 28.5 h, 10 µM was 82.9%.

As for `COC(=O)Nc1ccc2c(c1)N(C(=O)CCN1CCOCC1)c1ccccc1CC2` [CBK261284C], the viability at 28.5 h, 10 µM stood at 95.9%. For `CCOC(=O)Nc1ccc2c(c1)N(C(=O)CN1CCOCC1)c1ccccc1CC2` [CBK261286C], the viability at 28.5 h, 10 µM was 101%. As to `CN(C)CC(=O)N1c2ccccc2CCc2ccc(NC(=O)c3ccccc3)cc21` [CBK261289C], the viability at 28.5 h, 10 µM is 94.2%. On the same count and under the same terms, the result for `CCOC(=O)Nc1ccc2c(c1)N(C(=O)CN(C)C)c1ccccc1S2` [CBK261290C] reads 106%; that for `O=C(Nc1ccccc1)NC(N1CCOCC1)C(Cl)(Cl)Cl` (stereo not shown) [CBK261293], 103%; that for `O=C(CSc1nc2ccccc2[nH]1)c1ccccc1` [CBK261298], 92.9%.

As to `NS(=O)(=O)c1ccc(NC(=O)CCCN2C(=O)/C(=C/c3ccc(Cl)cc3)SC2=S)cc1` [CBK261302], the viability at 28.5 h, 10 µM worked out at 87.9%.

For the compound `CC1CCN(CN2C(=O)C(=O)c3ccccc32)CC1` [CBK261304], the viability at 28.5 h, 10 µM came to 91.7%. With `N/N=C(\CCC(=O)O)c1ccccc1` [CBK261306], the viability at 28.5 h, 10 µM came out at 98.3%. Take `O=C(O)CC1Sc2ccccc2NC1=O` (stereo not shown) [CBK261308]: the viability at 28.5 h, 10 µM amounted to 101%. As to `CCOC(=O)c1c(C)n(-c2ccc(C)cc2)c2ccc(Oc3ncccc3C#N)cc12` [CBK261310], the viability at 28.5 h, 10 µM was determined as 109%. `CSCCC(NC=C1C(=O)CC(C)(C)CC1=O)C(=O)O` (stereo not shown) [CBK261311]: the viability at 28.5 h, 10 µM came out at 92.9%. With `CCN(CC)CCNC(=O)CN1CCCC1=O` [CBK261312], the viability at 28.5 h, 10 µM (bulk resorufin, single well) was determined as 84.6%. Consider `CN(C)Cc1c(O)ccc2occ(C(O)c3ccccc3)c12` (stereo not shown) [CBK261313], for which the viability at 28.5 h, 10 µM came to 104%. As to `CC(=O)SCCC(=O)N1C(C)CCCC1C(=O)O` (stereo not shown) [CBK261315], the viability at 28.5 h, 10 µM is 93.1%. Turning to `O=C(Nc1cccc2cccnc12)c1ccc(Cl)c(Cl)c1` [CBK261318], the viability at 28.5 h, 10 µM was 91.5%. The same measure, in the same setting: the result for `COc1cccc(NC(=O)CCCC(=O)O)c1` [CBK261324] reads 98.1%. In the case of `O=C(O)CCC(=O)Nc1ccccc1C(=O)O` [CBK261325], the viability at 28.5 h, 10 µM turned out to be 91.1%. Still for that read-out and setting: the result for `O=C(O)CN(CC(=O)O)c1ccccc1` [CBK261326] reads 90.7%; that for `Cc1ccc(NC(=O)c2cc(C(=O)Nc3ccc(C)c(C)c3)cc(N3C(=O)c4ccccc4C3=O)c2)cc1C` [CBK261328], 93.8%. For `CC(C)(C)C(=O)Nc1ccc(C(=O)Nc2cccc(C(=O)O)c2)cc1` [CBK261329], the viability at 28.5 h, 10 µM is 94.8%.

Regarding `O=C(O)CCC(=O)Nc1ccc(-c2nc3ccccc3o2)cc1` [CBK261330], the viability at 28.5 h, 10 µM is 98%. Still for that read-out and setting: the result for `O=C(O)c1ccc2c(c1)C(=O)N(c1ccc3c(c1)Cc1cc(N4C(=O)c5ccc(C(=O)O)cc5C4=O)ccc1-3)C2=O` [CBK261333] reads 90.5%; that for `O=C(Nc1ccc(O)cc1)c1ccc2c(c1)C(=O)N(c1cccc(N3C(=O)c4ccc(C(=O)Nc5ccc(O)cc5)cc4C3=O)n1)C2=O` [CBK261334], 102%; that for `O=C1c2ccc(S(=O)(=O)c3ccc4c(c3)C(=O)N(c3nccs3)C4=O)cc2C(=O)N1c1nccs1` [CBK261335], 105%. For the compound `O=C(O)c1cc(C(=O)O)cc(N2C(=O)c3ccc(S(=O)(=O)c4ccc5c(c4)C(=O)N(c4cc(C(=O)O)cc(C(=O)O)c4)C5=O)cc3C2=O)c1` [CBK261336], the viability at 28.5 h, 10 µM was 100%.

`CC(=O)NCC(CN1CCOCC1)([N+](=O)[O-])[N+](=O)[O-]` [CBK261337]: the viability at 28.5 h, 10 µM worked out at 88.2%. On the same count and under the same terms, the result for `O=C(NCC(CN1CCOCC1)([N+](=O)[O-])[N+](=O)[O-])c1ccccc1` [CBK261339] reads 100%. On to `O=C1C2(Cc3ccccc3)CN3CN(C2)CC1(Cc1ccccc1)C3` [CBK261341], for which the viability at 28.5 h, 10 µM worked out at 89.9%.

For the compound `CCOC(=O)NC(Nn1cnnc1)(C(F)(F)F)C(F)(F)F` [CBK261344], the viability at 28.5 h, 10 µM was determined as 117%. In the case of `COC(=O)CCC(=O)Nc1cccc([N+](=O)[O-])c1` [CBK261345], the viability at 28.5 h, 10 µM was 95.4%. The same measure, in the same setting: the result for `COc1cc(/C=N/NC(=O)c2ccc([N+](=O)[O-])cc2)ccc1OC(C)=O` [CBK261348] reads 112%; that for `COC(=O)CCC(=O)Nc1ccc(S(N)(=O)=O)cc1` [CBK261351], 88.1%; that for `O=C(O)CCC(=O)NNC(=O)c1ccc(O)cc1` [CBK261353], 105%. Still for that read-out and setting: the result for `CCCOc1ccc(C(N)CC(=O)O)cc1` (stereo not shown) [CBK261360] reads 93.5%; that for `CCOc1ccc(C(C)(N)C(=O)O)cc1` (stereo not shown) [CBK261362], 121%. `CCOc1ccc(C(CC(=O)O)C(=O)O)cc1` (stereo not shown) [CBK261363]: the viability at 28.5 h, 10 µM was determined as 96.7%. Still for that read-out and setting: the result for `O=S(=O)(c1ccc(-c2ccc(S(=O)(=O)N3CCOCC3)cc2)cc1)N1CCOCC1` [CBK261366] reads 103%; that for `O=S(=O)(c1ccc(Cl)c(S(=O)(=O)N2CCOCC2)c1)c1ccc(Cl)c(S(=O)(=O)N2CCOCC2)c1` [CBK261369], 112%. On the same count and under the same terms, the result for `C/C(CCS(=O)(=O)c1ccc(Br)cc1)=N\NC(N)=S` [CBK261370] reads 102%. As for `O=C(O)CC1S/C(=N/N=C/c2ccco2)NC1=O` (stereo not shown) [CBK261371], the viability at 28.5 h, 10 µM turned out to be 93.7%.
